Data on one compound can be found in patent US8633250B2, “Cell repair and regeneration by suramin and related polysulfonated napthylureas” (MUSC Foundation for Research Development, priority 2006, dated 2014).

Assay [1] has as its system renal proximal tubule cells (RPTC). Put plainly: RPTC outgrowth from plated renal proximal tubules (photographs). The assay is classed as cell-based, rabbit. Particulars: after 24 hr exposed for 24 hr, 50 μM suramin, 10 ng/ml EGF or suramin+EGF. As for the experimental part: (§1) Isolation and culture of renal proximal tubules: Isolation and culture of renal proximal tubules were performed as described previously (Rodeheaver et al., 1990; Nowak and Schnellmann, 1995; Nowak and Schnellmann, 1996). Female New Zealand White rabbits (1.5-2.5 kg) were purchased from Myrtle's Rabbitry (Thompson Station, Tenn.). RPTC were isolated using the iron oxide perfusion method and grown in 6-well tissue culture dishes under improved conditions. The culture medium was an 1:1 mixture of DMEM/Ham's F-12 (without glucose, phenol red, or sodium pyruvate) supplemented with 15 mM HEPES buffer, 2.5 mM L-glutamine, 1 μM pyridoxine HCl, 15 mM sodium bicarbonate, and 6 mM lactate. Hydrocortisone (50 μM), selenium (5 ng/ml), human transferrin (5 μg/ml) bovine insulin (10 nM) and L-ascorbic acid-2-phosphate (50 μM) were added daily to fresh culture medium.
(§2) Isolated tubules were plated at 1 mg protein/well in a 6-well plate. On day 2, RPTC were incubated in the presence and absence of various pharmacological inhibitors for different time periods as indicated in the figure legends. For some experiments, suramin was added to RPTC on day 3 and then incubated for 24 hr in the presence or absence of various inhibitors before samples were taken.

Assay [2] has the same test system. Kind of assay: Cell cycle analysis by flow cytometry: number of RPTC in S-phase. The assay is classed as cell-based, rabbit. As for the experimental part:
as §1, §2
Cell cycle analysis: Cell cycle phase was determined using flow cytometry as previously described (Zhuang et al., 2004). Cells were harvested, stained with propidium iodide and the number of cells in S-phase of cell cycle determined.
On the technique in general: A flow cytometer gives signals particle by particle.

For assay [3] the test system is unchanged. Kind of assay: MTT assay of RPTC proliferation. Particulars: 48 hr exposure, 50 μM suramin, versus diluent controls. Format: cell-based, rabbit. As for the experimental part: as §1, with “[…],” for “Schnellmann,”, “medium. Isolated tubules were plated at 1 mg protein/well in a 6-well plate. On day 2, RPTC were incubated in the presence and absence of various pharmacological inhibitors for different time periods as indicated in the figure legends. […] MTT assay: The 3-(4,5-dimethylthiazol-2-yl)-2,5-diphenyl-tetrazolium bromide (MTT) assay was used to assess cell proliferation (Kooistra et al., 1997; […] et al., 2002). Following a 48 hr exposure to various inhibitors or diluents, MTT was added (final concentration of 0.5 mg/ml) to individual cultures for an additional 30 min. Tetrazolium was released by dimethyl sulfoxide and optical density was determined with a spectrophotometer (570 nm). Data were normalized to diluent-treated cultures.” for “medium.”
(In general: Tetrazolium assays rely on reduction of a dye to a coloured formazan, in cell work by metabolically active cells.)

The test system is the same in assay [4]. Kind of assay: RPTC scattering, fibroblast-like morphology and lamellipodia (bright field, phalloidin staining). Format: cell-based, rabbit. The settings on record: 24 hr. As to the method: as §1, §2
Immunocytochemistry: After various treatments, RPTC were fixed with 10% buffered formalin, washed, permeabilized, and blocked with BSA. Fluorescein conjugated phalloidin was added and RPTC visualized by fluorescent microscopy.

The next assay has as its system EGF receptor. Put plainly: Immunoblot of EGF receptor phosphorylation (Tyr1068) in RPTC. Format: cell-based, rabbit. Particulars: 50 μM suramin, 10 ng/ml EGF or both for 10 min. As for the experimental part:
(§3) Preparation of cell lysates and immunoblot analysis: After different treatments, RPTC were washed twice with PBS and harvested in lysis buffer (0.25 M Tris-HCl, pH 6.8, 4% SDS, 10% glycerol, 1 mg/ml bromophenol blue, and 0.5% 2-mercaptoethanol). Cells were disrupted by sonication for 15 seconds and lysates stored at −20 °C. Equal amounts of cellular protein lysate were separated on 10% polyacrylamide gels and transferred to nitrocellulose membranes. After treatment with 5% skim milk at 4 °C overnight, membranes were incubated with various antibodies for 1 hr, and then incubated with an appropriate horseradish-peroxidase conjugated secondary antibody (Amersham, Piscataway, N.J.). Bound antibodies were visualized following chemiluminescence detection on autoradiographic film.
To determine whether suramin caused EGF receptor activation, we performed immunoblot analysis using an antibody against phosphorylated tyrosine 1068 of the EGF receptor. Total EGF receptor content was measured using immunoblot analysis and an antibody that recognizes the EGF receptor independent of its phosphorylation state to control for gel loading. […] Thus, suramin induced RPTC proliferation and scattering is not through the EGF receptor.
On the technique in general: A western blot detects proteins with antibodies after separation by electrophoresis.

In a further assay the test system is Akt. Kind of assay: Immunoblot of Akt phosphorylation in RPTC. The assay is classed as cell-based, rabbit. Particulars: 50 μM suramin, 0-120 min. As for the experimental part: as §3
We evaluated whether the PI3K/Akt and/or ERK1/2 pathways are activated in RPTC in response to suramin. The activation of the PI3K and ERK1/2 pathways was measured using immunoblot analysis and antibodies that recognize phosphorylated Akt at serine 473 (a target of PI3K) and ERK1/2, respectively. Total Akt and ERK1/2 content was measured using immunoblot analysis and antibodies that recognize the Akt and ERK1/2 independent of their phosphorylation state to control for gel loading. Suramin-induced Akt phosphorylation within 10 min, reached a maximum at 30 min and was sustained through 120 min of treatment (FIG. 6A). ERK1/2 phosphorylation also was induced within 10 min and maximal at 30 min, but decreased to the control levels at 120 min.

The subject of another assay is ERK1/2. Kind of assay: Immunoblot of ERK1/2 phosphorylation in RPTC. The assay is classed as cell-based, rabbit. Particulars: 50 μM suramin, 0-120 min. As for the experimental part: as §3
We evaluated whether the PI3K/Akt and/or ERK1/2 pathways are activated in RPTC in response to suramin. The activation of the PI3K and ERK1/2 pathways was measured using immunoblot analysis and antibodies that recognize phosphorylated Akt at serine 473 (a target of PI3K) and ERK1/2, respectively. Total Akt and ERK1/2 content was measured using immunoblot analysis and antibodies that recognize the Akt and ERK1/2 independent of their phosphorylation state to control for gel loading.

In a further assay the test system is Src. Kind of assay: Immunoblot of Src phosphorylation (Tyr416, Tyr527) in RPTC. Format: cell-based, rabbit. Particulars: 50 μM suramin. As to the method:
as §3
To determine whether suramin activates Src and whether Src mediates Akt activation, we examined the effect of suramin on Src phosphorylation and the effect of PP1 on suramin-induced Akt phosphorylation. Src activation requires dephosphorylation of tyrosine 527 (Zheng et al., 2000) and phosphorylation of tyrosine 416 in the catalytic domain (Leu and Maa, 2003). Src phosphorylation at tyrosine 416 was detected in control samples. Following suramin-treatment, Src phosphorylation increased within 10 min and returned to the basal level at 60 min (FIG. 8A). […] Thus, suramin-induced RPTC proliferation and scattering is dependent on Src activity and Src is required for activation of the PI3K/Akt signaling pathway.

For assay [5], the system named is mouse renal ischemic/reperfusion (I/R) acute renal failure model. Kind of assay: Mouse renal ischemic/reperfusion (I/R) acute renal failure model, serum creatinine. Format: in vivo. As for the experimental part:
Experiments were designed to investigate whether suramin stimulated recovery of renal function in a mouse renal ischemic/reperfusion (I/R) acute renal failure model. Male C57BL/6 mice weighing 25-30 g were subjected to I/R injury using bilateral renal artery clamping for 26 min and then allowed to recover over time. The renal pedicles were isolated, but no clamps were applied in the sham group. Some mice subjected to I/R were treated with a single intravenous dose of suramin (0.001-10 mg/kg) or diluent 24 hr after reperfusion. Blood was collected at 24 and 48 hr after injury and serum creatinine levels measured as a marker of acute renal failure.

On to `Cc1ccc(C(=O)Nc2ccc(S(=O)(=O)O)c3cc(S(=O)(=O)O)cc(S(=O)(=O)O)c23)cc1NC(=O)c1cccc(NC(=O)Nc2cccc(C(=O)Nc3cc(C(=O)Nc4ccc(S(=O)(=O)O)c5cc(S(=O)(=O)O)cc(S(=O)(=O)O)c45)ccc3C)c2)c1` [suramin], for which the RPTC outgrowth entry in assay [1] is listed as “stimulated RPTC outgrowth”. Moreover, the “RPTC proliferation (S-phase)” value in [2] (100 μM suramin, 24 hr, compared with 50 μM) is reported as “did not further increase RPTC proliferation”. In addition, the “RPTC in S-phase” value in [2] (24 hr treatment, four days following plating, suramin 50 μM, EGF 10 ng/ml, untreated approximately 20%) is recorded as 29%. Besides, the “number of RPTC in S-phase” value in assay [2] (suramin concentrations lower than 50 μM, 24 hr) is given as “did not statistically increase the number of RPTC in S-phase”. The “increase in the number of RPTC (MTT assay)” value in assay [3] is on record as “approximately 40%”. In assay [4] (50 μM suramin or 10 ng/ml EGF, phalloidin staining), the “formation of lamellipodia and intercellular contacts” value was “increased the formation of lamellipodia and decreased intercellular contacts”. Moreover, the “RPTC morphology at the edge of the cell island (scattering)” value in assay [4] (50 μM suramin, RPTC cultured 3 days) is “lost contact with their neighbors and became elongated, fibroblast-like cells”. Moreover, the “EGF receptor phosphorylation (tyrosine 1068)” value in the assay on EGF receptor is reported as “did not detect phosphorylated EGF receptor”. In the assay on Akt, the “Akt phosphorylation sustained through” value is ≥ 120 min, the “time of maximum Akt phosphorylation” value came to 30 min and the “time to induction of Akt phosphorylation” value is given as ≤ 10 min. Moreover, in the assay with ERK1/2, the “time at which ERK1/2 phosphorylation decreased to the control levels” value turned out to be 120 min, the “time of maximal ERK1/2 phosphorylation” value is 30 min and the “time to induction of ERK1/2 phosphorylation” value is ≤ 10 min. In the assay with Src, the “reduced phosphorylation of Src at tyrosine 527 sustained through” value is ≥ 120 min, the “time at which Src phosphorylation (tyrosine 416) returned to the basal level” value is recorded as 60 min, the “time to increase of Src phosphorylation at tyrosine 416” value is recorded as ≤ 10 min and the “time to reduced phosphorylation of Src at tyrosine 527” value was ≤ 5 min. Moreover, the renal function entry in assay [5] (doses of suramin greater than or equal to 0.1 mg/kg, single intravenous dose 24 hr after reperfusion) is given as “completely restored renal function”. In assay [5] (low doses (0.1 mg/kg), given after acute renal failure is fully established), the “recovery of renal function” value is recorded as “complete recovery of renal function”. Besides, the serum creatinine levels entry in assay [5] (single intravenous suramin dose between 0.003 and 0.03 mg/kg 24 hr after reperfusion, I/R plus diluent approximately 2 mg/dl) is “approximately 1 mg/dl”.
